Literature values, collected in US8134031B2, “Extraction process for aldehyde product separation and catalyst recovery” (Dow Global Technologies LLC, priority 2007, dated 2012).
Structures can show the parent of a compound that is named as a salt.

settings: 22° C.; experimental value (Yaw's Handbook)

Row | Compound | Solubility in water [ppmw]
1 | CCCC(=O)OCC [Ethyl butyrate] | 6168
2 | CCCOC=O [Propyl formate] | 22000

same assay, conditions: 25° C.

Row | Compound | H2O solubility
3 | C=CCCCCCC [1-Octene] | 4.10 ppm
4 | CCCCCCC [Heptane] | 2.24 ppmw
5 | CCCCCC [Hexane] | 13.3 ppmw

same assay, conditions: 25° C.; estimated value (Yaw's Handbook)

Row | Solubility in water [ppmw] | Compound
6 | 28212 | CCC(C)C=O (stereo not drawn) [2-Methylbutanal]
7 | 25882 | CCC(O)C(C)C (stereo not drawn) [2-Methyl-3-pentanol]
8 | 27392 | CC(C)CC=O [3-Methylbutanal]
9 | 22865 | CCC(=O)C(C)C [Ethyl isopropyl ketone]
10 | 16787 | CCCOC(C)=O [Propyl acetate]

same assay, conditions: 25° C.; experimental value (Yaw's Handbook)

Row | Compound | Solubility in water [ppmw]
11 | CCCC(=O)OC [Methyl butyrate] | 15000
12 | C=CCCCCCC [1-Octene] | 4.10
13 | CCCCCO [1-Pentanol] | 22000
14 | CCCCCCC [Heptane] | 2.24
15 | CCCCCCC=O [1-Heptanal] | 1516
16 | CCC(C)CO (stereo not drawn) [2-Methyl-1-butanol] | 30000
17 | O=C1CCCCC1 [Cyclohexanone] | 93190
18 | CC(=O)OC(C)C [Isopropyl acetate] | 29000
19 | C=C(C)C(C)=O [Methyl isopropenyl ketone] | 47000
20 | CCCCC(C)=O [2-Hexanone] | 16400

Now from value to compound:

Row | Solubility in water [ppmw] | Compound
21 | 52000 | CCC(O)CC [3-Pentanol]
22 | 11700 | CCCCC=O [Pentanal]
23 | 45000 | CCCC(C)O (stereo not drawn) [2-Pentanol]
24 | 73720 | CCOC(C)=O [Ethyl acetate]
25 | 14700 | CCCC(=O)CC [3-Hexanone]
26 | 22000 | CCOC(=O)CC [Ethyl propanoate]
27 | 13.3 | CCCCCC [Hexane]
28 | 56000 | CC(C)C(C)O (stereo not drawn) [3-Methyl-2-butanol]
29 | 34000 | CCC(=O)CC [Diethyl ketone]
30 | 60800 | CC(=O)C(C)C [Methyl isopropyl ketone]
31 | 27000 | CC(C)CCO [3-Methyl-1-butanol]
32 | 11250 | CC(C)OC(C)C [Diisopropyl ether]
33 | 55360 | CCCC(C)=O [Methyl propyl ketone]
